Measurements: US8299083B2, “PDE5 inhibitor compositions and methods for treating cardiac indications” (The Johns Hopkins University, priority 2004, dated 2012)
Read-outs that look alike come from different tables or passages of the source.

What was measured:
[1] = system: C57BL/6 mice, pressure overload by transverse aortic constriction; assay: In vivo cardiac hemodynamics by pressure-volume analysis, TAC mice; set-up: species or system mouse
Method: Pressure overload was produced by transverse aortic constriction.
Transthoracic two-dimensional guided M-mode echocardiography was performed in non-anesthetized mice. Measurements were done using an echocardiography system, the SEQUOIA C256 (Siemens, Munich, Del.) with the 15 MHz linear-array transducer. Intact heart hemodynamic analysis was performed as described^90. These studies employed a four-electrode pressure-volume catheter (model SPR-839, Millar Instruments) placed through the left ventricular apex in the open chest anesthetized animal and positioned along the longitudinal axis to record chamber volume by impedance and pressure by micromanometry.
All hemodynamic data were recorded using custom developed software, digitizing signals at 2 KHz. End-diastolic and end-systolic volumes were the average of volumes measured during isovolumic contraction and relaxation, respectively. ESP was the pressure at maximal chamber elastance (P/V ratio)^1. EDP was the diastolic pressure at the lower right hand corner of the pressure-volume loop. Cardiac output was determined from a perivascular flow probe (Transonics, Ithica, N.Y.) placed around the thoracic aorta. Ea was equal to the ratio of end-systolic pressure divided by stroke volume. The volume catheter signal was calibrated for both gain and offset. Gain was determined by setting the catheter-derived cardiac output (equal to pressure-volume loop width times heart rate) to that obtained from the calibrated flow probe value. Offset was determined using the hypertonic saline method Ventricular power was equal to the instantaneous product of pressure times flow, and the peak power was divided by EDV to obtain the power index PMXI^79. […] The slope of this relation Ees was normalized by heart mass and expressed per gm heart mass. Msw was derived from the linear relation between stroke work and EDV from the same set of variably loaded cardiac cycles used to derive Eesn, and is another load-independent assessment of systolic contractile function^4. Tau was obtained from the model: P=Po+ae^−t/□ . . . fitting data during isovolumic relaxation. dP/dt was derived from a digital filter (5-point weighted slope). PFR/EDV was derived from the maximal first derivative of the volume signal during early diastole, divided by EDV.

PKG-1 = assay: Whole heart PKG-1 activity; format: in vivo, mouse; conditions: chronic treatment
Method: (§1) PI3Kα activity was assessed by Elisa assay following immunoprecipitation of PI3K (Seize X IP Kit, Pierce) using a p85α monoclonal antibody (Cell Signaling), with activity measured by fluorescence polarization (Molecular Devices, Perkin-Elmer Victor 3 plate reader). Akt activity (IP with s473-pAkt Ab, GSK-3 fusion protein substrate) was performed using a commercial kit (Cell Signaling Technology, Beverly, Mass.). PKG-1 activity was assayed by calorimetric analysis, CycLex (Clinisciences, Montrouge, FR) from whole heart lysates.

myocardial cGMP = assay: Myocardial cyclic nucleotide levels; format: in vivo, mouse
Text: Hearts were washed in ice-cold PBS, homogenized in 6% trichloroacetic acid, centrifuged and extracted with water-saturated ether. The aqueous layer was transferred, vacuum dried, and the pellet resuspended in sodium acetate buffer for cAMP and cGMP enzyme immunoassay (Amersham Pharmacia Biotech, Buckinghamshire, UK).

calcineurin = assay: Calcineurin expression in TAC hearts (Western blot); format: in vivo, mouse; conditions: 1 and 9 weeks of TAC
Method: (§2) Protein was prepared from snap-frozen heart tissue using extraction buffer as described previously^90. Antibodies included calcineurin (1:2000 dilution, BD Transduction Laboratories (San Diego, Calif.), GSK3β, Ser9-phospho-GSK313, Akt, Ser473-phospho-Akt, ERK, Thr202/Thr204-phospho-ERK (1:1000 dilution, Cell Signaling Technology, Beverly, Mass.). Primary antibody binding was visualized by horse radish peroxidase-conjugated secondary antibodies and enhanced chemiluminescence (Pierce, Rockford, Ill.).

ERK1/2 = ERK1/2 activation in TAC hearts (Western blot); format: in vivo, mouse
Method: as §2

PI3Kα = PI3Kα activity in TAC hearts; format: in vivo, mouse; conditions: 3 week TAC
Method: as §1

[2] = system: isolated adult murine myocytes; assay: Isoproterenol-stimulated contraction of isolated adult cardiac myocytes; format: cell-based, mouse; conditions: sildenafil 100 nM
Method: Louis, Mo.) for 6-7 min. Ventricles were gently chopped, filtered (150μ mesh), centrifuged (500 RPM×1 min), and rinsed in Tyrode's solution with increasing calcium (final 1.8 mM Ca^2+). Cells were incubated with 5 μM Indo-1 AM (Molecular Probes), rinsed, and studied at 27° C. by field stimulation in an inverted fluorescence microscope (Diaphot 200; Nikon, Inc). Sarcomere length (IonOptix, MA) and whole cell calcium transients were measured.

cGMP = cGMP FRET imaging in neonatal rat myocytes; format: cell-based
Method: Ventricular myocytes from 1-2 days old Sprague Dawley rats (CharlesRiver Lab, MA) were prepared and transfected with the vector carrying the cGMP sensor cygnet-2.1^77 in which EYFP was substituted with the less pH sensitive variant citrine^89, and imaged eighteen-twenty-four hours after transfection as described^90. Images (50-80 ms exposure) were acquired every 10 seconds using custom software and processed by Imagej (NIH, MD). FRET was the change in 480 nm/545 nm emission intensities (ΔR) upon 430 nm excitation^91 expressed as percent change over the basal intensity (R0). Cells were bathed in HEPES buffered Ringer's modified saline (1 mmol/L CaCl2), at room temperature (20-22° C.).

With `CCCc1nn(C)c2c(=O)[nH]c(-c3cc(S(=O)(=O)N4CCN(C)CC4)ccc3OCC)nc12` [sildenafil] the “CO (cardiac output)” value ([1]; 3 wk TAC + Delay (2 wk) Sil) was 10.7 ± 0.5 mL/min, the “EDP (LV end-diastolic pressure)” value ([1]; 3 wk TAC + Delay (2 wk) Sil) was 7.5 ± 0.6 mmHg and the “EDV (LV end-diastolic volume)” value ([1]; 3 wk TAC + Delay (2 wk) Sil) was 29.4 ± 2.0 µL. For the same molecule, the “EF (ejection fraction)” value ([1]; 3 wk TAC + Delay (2 wk) Sil) was 64.0 ± 4.7%, the “ESP (LV end-systolic pressure)” value ([1]; 3 wk TAC + Delay (2 wk) Sil) was 184.0 ± 9.1 (b) mmHg and the “ESV (LV end-systolic volume)” value ([1]; 3 wk TAC + Delay (2 wk) Sil) was 10.9 ± 2.1 µL. The “Ea (effective arterial elastance)” value ([1]; 3 wk TAC + Delay (2 wk) Sil) was 9.9 ± 0.6 (b) mmHg/μL, the “Eesn (end-systolic elastance normalized to heart mass)” value ([1]; 3 wk TAC + Delay (2 wk) Sil) was 111.0 ± 31.4 mmHg/μL/g and the “HR (heart rate)” value ([1]; 3 wk TAC + Delay (2 wk) Sil) was 574.6 ± 21.7 MIN^−. The “Msw (preload recruitable stroke work)” value ([1]; 3 wk TAC + Delay (2 wk) Sil) was 171.3 ± 27.6 (i) mmHg, the “PFR/EDV (peak diastolic filling rate normalized to EDV)” value ([1]; 3 wk TAC + Delay (2 wk) Sil) was 30.6 ± 3.6 s⁻¹ and the “Tau (time constant of pressure relaxation)” value (“Tau” for short) ([1]; 3 wk TAC + Delay (2 wk) Sil) was 7.5 ± 0.3 M·s. For the same molecule, the “dP/dtmax (maximal rate of pressure rise)” value ([1]; 3 wk TAC + Delay (2 wk) Sil) was 14879 ± 898 mmHg/s, the “dP/dtmin (peak rate of LV pressure decline)” value (from here on “dP/dtmin”) ([1]; 3 wk TAC + Delay (2 wk) Sil) was −14325 ± 445 (j) mmHg/s and the “dP/dtmx/IP (dP/dtmax normalized to instantaneous developed pressure)” value ([1]; 3 wk TAC + Delay (2 wk) Sil) was 209.4 ± 11.1 s⁻¹. For the same molecule, the “CO (cardiac output)” value ([1]; 3 wk TAC + Sil) was 9.4 ± 0.5 mL/min, the “EDP (LV end-diastolic pressure)” value ([1]; 3 wk TAC + Sil) was 7.6 ± 1.4 mmHg and the “EDV (LV end-diastolic volume)” value ([1]; 3 wk TAC + Sil) was 22.2 ± 1.5 µL. The “EF (ejection fraction)” value ([1]; 3 wk TAC + Sil) was 72.6 ± 5.7%, the “ESP (LV end-systolic pressure)” value ([1]; 3 wk TAC + Sil) was 163.6 ± 5.6 (b) mmHg and the “ESV (LV end-systolic volume)” value ([1]; 3 wk TAC + Sil) was 6.4 ± 1.7 µL. The “Ea (effective arterial elastance)” value ([1]; 3 wk TAC + Sil) was 10.5 ± 0.8 (b) mmHg/μL, the “Eesn (end-systolic elastance normalized to heart mass)” value ([1]; 3 wk TAC + Sil) was 133.0 ± 25.1 (i) mmHg/μL/g and the “HR (heart rate)” value ([1]; 3 wk TAC + Sil) was 598.8 ± 23.8 MIN^−. The “Msw (preload recruitable stroke work)” value ([1]; 3 wk TAC + Sil) was 162.5 ± 10.5 (i) mmHg, the “PFR/EDV (peak diastolic filling rate normalized to EDV)” value ([1]; 3 wk TAC + Sil) was 43.1 ± 4.9 (k) sec^−1 and the “Tau” value ([1]; 3 wk TAC + Sil) was 6.3 ± 0.4 M·s. The “dP/dtmax (maximal rate of pressure rise)” value ([1]; 3 wk TAC + Sil) was 18638 ± 1379 (f) mmHg/s, the “dP/dtmin” value ([1]; 3 wk TAC + Sil) was −16758 ± 917 (f) mmHg/s and the “dP/dtmx/IP (dP/dtmax normalized to instantaneous developed pressure)” value ([1]; 3 wk TAC + Sil) was 256.5 ± 8.4 g/s. The “CO (cardiac output)” value ([1]; Sildenafil 3 wk, no TAC) was 11.1 ± 1.1 mL/min, the “EDP (LV end-diastolic pressure)” value ([1]; Sildenafil 3 wk, no TAC) was 6.5 ± 1.0 mmHg and the “EDV (LV end-diastolic volume)” value ([1]; Sildenafil 3 wk, no TAC) was 32.8 ± 2.3 µL. The “EF (ejection fraction)” value ([1]; Sildenafil 3 wk, no TAC) was 61.4 ± 6.1%, the “ESP (LV end-systolic pressure)” value ([1]; Sildenafil 3 wk, no TAC) was 101.5 ± 2.6 mmHg and the “ESV (LV end-systolic volume)” value ([1]; Sildenafil 3 wk, no TAC) was 13.0 ± 2.7 µL. For the same molecule, the “Ea (effective arterial elastance)” value ([1]; Sildenafil 3 wk, no TAC) was 5.3 ± 0.5 mmHg/μL, the “Eesn (end-systolic elastance normalized to heart mass)” value ([1]; Sildenafil 3 wk, no TAC) was 47.6 ± 5.8 mmHg/μL/g and the “HR (heart rate)” value ([1]; Sildenafil 3 wk, no TAC) was 558.5 ± 22.9 MIN^−. For the same molecule, the “Msw (preload recruitable stroke work)” value ([1]; Sildenafil 3 wk, no TAC) was 84.0 ± 5.7 mmHg, the “PFR/EDV (peak diastolic filling rate normalized to EDV)” value ([1]; Sildenafil 3 wk, no TAC) was 34.1 ± 1.9 s⁻¹ and the “Tau” value ([1]; Sildenafil 3 wk, no TAC) was 7.6 ± 0.4 M·s. For the same molecule, the “dP/dtmax (maximal rate of pressure rise)” value ([1]; Sildenafil 3 wk, no TAC) was 11843 ± 681 mmHg/s, the “dP/dtmin” value ([1]; Sildenafil 3 wk, no TAC) was −10689 ± 399 mmHg/s and the “dP/dtmx/IP (dP/dtmax normalized to instantaneous developed pressure)” value ([1]; Sildenafil 3 wk, no TAC) was 183.7 ± 6.9 s⁻¹. The “whole heart PKG-1 activity” value (PKG-1; TAC hearts) was “more than doubled PKG-1 activity”, the “whole heart PKG-1 activity” value (PKG-1; sham controls) was “no effect on activity” and the “total myocardial cGMP” value (myocardial cGMP; TAC hearts, chronic co-treatment) was “declined”. For the same molecule, the “myocardial cAMP levels” value (myocardial cGMP; basal or TAC conditions) was “did not alter myocardial cAMP levels”, the “total myocardial cGMP” value (myocardial cGMP; sham controls, chronic treatment) was “did not change” and the calcineurin protein expression (calcineurin) was “significantly reduced”. The “ERK1/2 activation (phospho/total)” value (ERK1/2; 1-week TAC) was “suppressed”, the “ERK1/2 activation (phospho/total)” value (ERK1/2; 9-weeks TAC) was “no demonstrable effect” and the “TAC-increased PI3Kα activity” value (PI3Kα) was “suppressed”. For the same molecule, the “isoproterenol-enhanced contraction of isolated cardiac muscle cells” value [2] was “blunted”, the “cGMP FRET signal” value (cGMP) was “enhanced the FRET signal” and the “cGMP FRET signal” value (cGMP; listed as SIL) was “raised cellular cGMP”.
